Eight compounds from patent US20200354426A1 (MEDIMMUNE LIMITED, priority 2016, published 2020) can be followed below.

Holding throughout (assay): cAMP activity assay in assay medium (assay 1)
What all share (format): cell-based
Conditions in all cases: assay medium

One test concerns the target Human GLP1R (Homo sapiens, UniProt P43220). Also noted: expressed in transfected cells. From the text: (§1) Biological Activity of Peptides in Cell-Based cAMP Activity Assay (Assay 1):
(§2) All sample dilutions were made in duplicate.

The target of a further test is T1, Human GlucR (Homo sapiens, UniProt P47871).
T1 construct: expressed in transfected cells
Description: as §1, §2

A further test addresses T2, Human GIPr (Homo sapiens, UniProt P48546).
T2 construct: expressed in transfected cells
T2 sequence (P48546 22-466): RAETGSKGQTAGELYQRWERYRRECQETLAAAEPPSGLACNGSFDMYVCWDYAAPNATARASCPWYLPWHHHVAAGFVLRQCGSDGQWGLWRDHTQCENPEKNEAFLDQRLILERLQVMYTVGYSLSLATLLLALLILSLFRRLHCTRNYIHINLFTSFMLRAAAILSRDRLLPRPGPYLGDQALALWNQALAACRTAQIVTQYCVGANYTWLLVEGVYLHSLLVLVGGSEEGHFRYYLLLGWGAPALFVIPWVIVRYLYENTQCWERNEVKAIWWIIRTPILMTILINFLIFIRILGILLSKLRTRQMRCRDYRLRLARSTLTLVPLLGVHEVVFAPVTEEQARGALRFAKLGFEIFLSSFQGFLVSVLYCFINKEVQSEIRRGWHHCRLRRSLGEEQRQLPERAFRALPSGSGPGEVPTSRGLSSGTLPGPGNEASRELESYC
Description: as §1, §2

[1] abbreviates: Table 3, C-terminal acid peptides, read-out: Human GLP1R EC50.
[2] abbreviates: Table 3, C-terminal acid peptides, read-out: Human GlucR EC50.
Setting [3] is: Table 3, C-terminal acid peptides, read-out: Human GIPr EC50.

“And” between values parts separate entries of the source, which are not always exact repeats. Identical values can stand only once. Like-named read-outs stand apart in the source and are kept apart here. Numbered stars: 1 amine (or outer) side, 2 acyl side, 3 side chain; on linkers, the order of the positions; unused ones are H or OH. Side chains are listed from the residue outwards. Peptide text beside a SMILES is read from it. * marks the point of attachment. γGlu = O=C(O)[C@H](CCC(=O)[*:2])N[*:1]; Palmitoyl = CCCCCCCCCCCCCCCC(=O)*

T1 sequence (P47871 26-477): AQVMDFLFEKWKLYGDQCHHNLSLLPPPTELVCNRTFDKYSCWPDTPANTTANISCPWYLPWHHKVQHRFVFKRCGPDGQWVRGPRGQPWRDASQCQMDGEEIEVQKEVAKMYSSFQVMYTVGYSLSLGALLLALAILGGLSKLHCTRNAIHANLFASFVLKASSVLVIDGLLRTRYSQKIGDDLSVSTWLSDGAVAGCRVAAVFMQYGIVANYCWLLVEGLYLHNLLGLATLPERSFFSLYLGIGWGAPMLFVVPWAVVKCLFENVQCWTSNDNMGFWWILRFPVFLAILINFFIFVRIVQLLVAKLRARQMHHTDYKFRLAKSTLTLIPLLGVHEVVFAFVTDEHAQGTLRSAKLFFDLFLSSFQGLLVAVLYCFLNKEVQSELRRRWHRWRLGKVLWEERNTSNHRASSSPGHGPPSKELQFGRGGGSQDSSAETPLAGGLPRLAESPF
Sequence of Human GLP1R (P43220 24-463): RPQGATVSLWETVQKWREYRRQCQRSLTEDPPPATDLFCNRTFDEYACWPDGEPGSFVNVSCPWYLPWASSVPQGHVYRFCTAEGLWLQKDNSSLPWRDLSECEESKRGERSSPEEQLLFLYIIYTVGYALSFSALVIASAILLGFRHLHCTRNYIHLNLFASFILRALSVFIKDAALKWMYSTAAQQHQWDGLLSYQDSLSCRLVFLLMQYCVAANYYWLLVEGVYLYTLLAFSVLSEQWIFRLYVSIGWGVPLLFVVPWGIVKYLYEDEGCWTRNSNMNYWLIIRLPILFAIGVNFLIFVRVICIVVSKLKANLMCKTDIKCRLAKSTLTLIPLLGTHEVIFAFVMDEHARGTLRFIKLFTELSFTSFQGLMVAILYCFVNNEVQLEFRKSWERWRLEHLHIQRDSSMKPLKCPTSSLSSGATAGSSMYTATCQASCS

For orientation: EC50 means the concentration at which the effect is half-maximal. In the case of `CCCCCCCCCCCCCCCC(=O)N[C@@H](CCC(=O)NCCCC[C@H](NC(=O)[C@H](CC(=O)O)NC(=O)[C@H](CO)NC(=O)[C@@H](NC(=O)[C@H](Cc1ccccc1)NC(=O)[C@@H](NC(=O)CNC(=O)[C@H](CCC(N)=O)NC(=O)[C@H](CO)NC(=O)[C@@H](N)Cc1c[nH]cn1)[C@@H](C)O)[C@@H](C)O)C(=O)N[C@@H](CO)C(=O)N[C@@H](CCCCN)C(=O)N[C@@H](Cc1ccc(O)cc1)C(=O)N[C@@H](CC(C)C)C(=O)N[C@@H](CCC(=O)O)C(=O)NCC(=O)N[C@@H](CCC(N)=O)C(=O)N[C@@H](C)C(=O)N[C@@H](C)C(=O)N[C@@H](CCCCN)C(=O)N[C@@H](CCC(=O)O)C(=O)N[C@@H](Cc1ccccc1)C(=O)N[C@H](C(=O)N[C@@H](C)C(=O)N[C@@H](Cc1c[nH]c2ccccc12)C(=O)N[C@@H](CC(C)C)C(=O)N[C@@H](CCC(=O)O)C(=O)N[C@@H](CCCCN)C(=O)NCC(=O)N[C@@H](CCCNC(=N)N)C(=O)O)[C@@H](C)CC)C(=O)O` [Peptide G934], the figures for the EC50 on Human GLP1R (setting [1]), at Human GlucR (setting [2]) and on Human GIPr (setting [3]) were 0.018 nM, 0.0063 nM and 3.6 nM, respectively.
The corresponding values for `CCCCCCCCCCCCCCCC(=O)N[C@@H](CCC(=O)NCCCC[C@H](NC(=O)[C@H](CC(=O)O)NC(=O)[C@H](CO)NC(=O)[C@@H](NC(=O)[C@H](Cc1ccccc1)NC(=O)[C@@H](NC(=O)CNC(=O)[C@H](CCC(N)=O)NC(=O)[C@H](CO)NC(=O)[C@@H](N)Cc1c[nH]cn1)[C@@H](C)O)[C@@H](C)O)C(=O)N[C@@H](CO)C(=O)N[C@@H](CO)C(=O)N[C@@H](Cc1ccc(O)cc1)C(=O)N[C@@H](CC(C)C)C(=O)N[C@@H](CC(=O)O)C(=O)N[C@@H](CO)C(=O)N[C@@H](CCCNC(=N)N)C(=O)N[C@@H](CO)C(=O)N[C@@H](C)C(=O)N[C@@H](CCCNC(=N)N)C(=O)N[C@@H](CC(=O)O)C(=O)N[C@@H](Cc1ccccc1)C(=O)N[C@H](C(=O)N[C@@H](C)C(=O)N[C@@H](Cc1c[nH]c2ccccc12)C(=O)N[C@@H](CC(C)C)C(=O)N[C@@H](CCC(=O)O)C(=O)N[C@@H](C)C(=O)NCC(=O)NCC(=O)O)C(C)C)C(=O)O` [Peptide G973] are 0.012 nM, 0.0089 nM and 47 nM.
`CC(C)C[C@H](NC(=O)[C@H](Cc1ccc(O)cc1)NC(=O)[C@H](CCCCN)NC(=O)[C@H](CO)NC(=O)[C@H](Cc1ccc(O)cc1)NC(=O)[C@H](CC(=O)O)NC(=O)[C@H](CO)NC(=O)[C@@H](NC(=O)[C@H](Cc1ccccc1)NC(=O)[C@@H](NC(=O)CNC(=O)[C@H](CCC(N)=O)NC(=O)[C@H](CO)NC(=O)[C@@H](N)Cc1c[nH]cn1)[C@@H](C)O)[C@@H](C)O)C(=O)N[C@@H](CC(=O)O)C(=O)N[C@@H](CO)C(=O)N[C@@H](CCCNC(=N)N)C(=O)N[C@@H](CCCNC(=N)N)C(=O)N[C@@H](C)C(=O)N[C@@H](CCC(N)=O)C(=O)N[C@@H](CC(=O)O)C(=O)N[C@@H](Cc1ccccc1)C(=O)N[C@H](C(=O)N[C@@H](CCC(N)=O)C(=O)N[C@@H](Cc1c[nH]c2ccccc12)C(=O)N[C@@H](CC(C)C)C(=O)N[C@H](C(=O)N[C@@H](CCCNC(=N)N)C(=O)NCC(=O)NCC(=O)NCC(=O)NCC(=O)NCC(=O)NCC(N)=O)C(C)C)C(C)C` [g315]: the concentration for a half-maximal effect (EC50) at Human GLP1R (Table 4, read-out: hGLP1R EC50) was 0.0273 nM; at Human GlucR (Table 4, read-out: hGlucR EC50), 0.00504 nM; on Human GIPr (Table 4, read-out: hGIPR EC50), 19.7 nM.
Regarding `CCCCCCCCCCCCCCCC(=O)N[C@@H](CCC(=O)NCCCC[C@H](NC(=O)[C@H](CO)NC(=O)[C@H](CC(=O)O)NC(=O)[C@H](CC(C)C)NC(=O)[C@H](Cc1ccc(O)cc1)NC(=O)[C@H](CCCCN)NC(=O)[C@H](CO)NC(=O)[C@H](Cc1ccc(O)cc1)NC(=O)[C@H](CC(=O)O)NC(=O)[C@H](CO)NC(=O)[C@@H](NC(=O)[C@H](Cc1ccccc1)NC(=O)[C@@H](NC(=O)CNC(=O)[C@H](CCC(N)=O)NC(=O)[C@H](CO)NC(=O)[C@@H](N)Cc1c[nH]cn1)[C@@H](C)O)[C@@H](C)O)C(=O)N[C@@H](CCCNC(=N)N)C(=O)N[C@@H](C)C(=O)N[C@@H](CCC(=O)O)C(=O)N[C@@H](CC(=O)O)C(=O)N[C@@H](Cc1ccccc1)C(=O)N[C@H](C(=O)N[C@@H](CCC(N)=O)C(=O)N[C@@H](Cc1c[nH]c2ccccc12)C(=O)N[C@@H](CC(C)C)C(=O)N[C@H](C(=O)N[C@@H](C)C(=O)NCC(=O)NCC(N)=O)C(C)C)C(C)C)C(=O)O` [g599], the EC50 on Human GlucR (Table 4, read-out: hGlucR EC50) is 0.0962 nM and 0.0698 nM; at Human GIPr (Table 4, read-out: hGIPR EC50) it was 113 nM and 112 nM.
In the case of `CCCCCCCCCCCCCCCC(=O)N[C@@H](CCC(=O)NCCCC[C@H](NC(=O)[C@H](CC(=O)O)NC(=O)[C@H](CO)NC(=O)[C@@H](NC(=O)[C@H](Cc1ccccc1)NC(=O)[C@@H](NC(=O)CNC(=O)[C@H](CCC(N)=O)NC(=O)[C@H](CO)NC(=O)[C@@H](N)Cc1c[nH]cn1)[C@@H](C)O)[C@@H](C)O)C(=O)N[C@@H](CO)C(=O)N[C@@H](CCCCN)C(=O)N[C@@H](Cc1ccc(O)cc1)C(=O)N[C@@H](CC(C)C)C(=O)N[C@@H](CC(=O)O)C(=O)N[C@@H](CO)C(=O)N[C@@H](CCCNC(=N)N)C(=O)N[C@@H](CCCNC(=N)N)C(=O)N[C@@H](C)C(=O)N[C@@H](CCC(N)=O)C(=O)N[C@@H](CC(=O)O)C(=O)N[C@@H](Cc1ccccc1)C(=O)N[C@H](C(=O)N[C@@H](CCC(N)=O)C(=O)N[C@@H](Cc1c[nH]c2ccccc12)C(=O)N[C@@H](CC(C)C)C(=O)N[C@@H](CCC(=O)O)C(=O)N[C@@H](C)C(=O)NCC(=O)NCC(N)=O)C(C)C)C(=O)O` [g717] (H-HSQGTFTSDK([γGlu-Palmitoyl])SKYLDSRRAQDFVQWLEAGG-NH2; N-terminus assumed), the EC50 on Human GLP1R (Table 4, read-out: hGLP1R EC50) was 0.00577 nM; on Human GIPr (Table 4, read-out: hGIPR EC50) it was 1.48 nM.
In the case of `CCCCCCCCCCCCCCCC(=O)N[C@@H](CCC(=O)NCCCC[C@H](NC(=O)[C@H](Cc1ccc(O)cc1)NC(=O)[C@H](CCCCN)NC(=O)[C@H](CO)NC(=O)[C@H](Cc1ccc(O)cc1)NC(=O)[C@H](CC(=O)O)NC(=O)[C@H](CO)NC(=O)[C@@H](NC(=O)[C@H](Cc1ccccc1)NC(=O)[C@@H](NC(=O)CNC(=O)[C@H](CCC(N)=O)NC(=O)[C@H](CO)NC(=O)[C@@H](N)Cc1c[nH]cn1)[C@@H](C)O)[C@@H](C)O)C(=O)N[C@@H](CC(=O)O)C(=O)N[C@@H](CO)C(=O)N[C@@H](CCCNC(=N)N)C(=O)N[C@@H](CCCNC(=N)N)C(=O)N[C@@H](C)C(=O)N[C@@H](CCCNC(=N)N)C(=O)N[C@@H](CC(=O)O)C(=O)N[C@@H](Cc1ccccc1)C(=O)N[C@H](C(=O)N[C@@H](C)C(=O)N[C@@H](Cc1c[nH]c2ccccc12)C(=O)N[C@@H](CC(C)C)C(=O)N[C@@H](CCC(=O)O)C(=O)N[C@@H](C)C(=O)NCC(=O)NCC(N)=O)C(C)C)C(=O)O` [g780] (H-HSQGTFTSDYSKYK([γGlu-Palmitoyl])DSRRARDFVAWLEAGG-NH2; N-terminus assumed), the EC50 on Human GLP1R (Table 4, read-out: hGLP1R EC50) was 0.012 nM; at Human GIPr (Table 4, read-out: hGIPR EC50), 64 nM.
As to `CCCCCCCCCCCCCCCC(=O)N[C@@H](CCC(=O)NCCCC[C@H](NC(=O)[C@H](CC(=O)O)NC(=O)[C@H](CO)NC(=O)[C@@H](NC(=O)[C@H](Cc1ccccc1)NC(=O)[C@@H](NC(=O)CNC(=O)[C@H](CCC(N)=O)NC(=O)[C@H](CO)NC(=O)[C@@H](N)Cc1c[nH]cn1)[C@@H](C)O)[C@@H](C)O)C(=O)N[C@@H](CO)C(=O)N[C@@H](CCCCN)C(=O)N[C@@H](Cc1ccc(O)cc1)C(=O)N[C@@H](CC(C)C)C(=O)N[C@@H](CC(=O)O)C(=O)N[C@@H](CO)C(=O)N[C@@H](CCC(=O)O)C(=O)N[C@@H](CCCNC(=N)N)C(=O)N[C@@H](C)C(=O)N[C@@H](CCCNC(=N)N)C(=O)N[C@@H](CC(=O)O)C(=O)N[C@@H](Cc1ccccc1)C(=O)N[C@H](C(=O)N[C@@H](C)C(=O)N[C@@H](Cc1c[nH]c2ccccc12)C(=O)N[C@@H](CC(C)C)C(=O)N[C@@H](CCC(=O)O)C(=O)N[C@@H](C)C(=O)NCC(=O)NCC(N)=O)C(C)C)C(=O)O` [g798] (H-HSQGTFTSDK([γGlu-Palmitoyl])SKYLDSERARDFVAWLEAGG-NH2; N-terminus assumed), the EC50 on Human GLP1R (Table 4, read-out: hGLP1R EC50) is 0.00907 nM; at Human GIPr (Table 4, read-out: hGIPR EC50), 1.51 nM.
For the compound `CCCCCCCCCCCCCCCC(=O)N[C@@H](CCC(=O)NCCCC[C@H](NC(=O)[C@H](CC(=O)O)NC(=O)[C@H](CO)NC(=O)[C@@H](NC(=O)[C@H](Cc1ccccc1)NC(=O)[C@@H](NC(=O)CNC(=O)[C@H](CCC(N)=O)NC(=O)[C@H](CO)NC(=O)[C@@H](N)Cc1c[nH]cn1)[C@@H](C)O)[C@@H](C)O)C(=O)N[C@@H](CO)C(=O)N[C@@H](CCCNC(=N)N)C(=O)N[C@@H](Cc1ccc(O)cc1)C(=O)N[C@@H](CC(C)C)C(=O)N[C@@H](CC(=O)O)C(=O)N[C@@H](CO)C(=O)N[C@@H](CCC(=O)O)C(=O)N[C@@H](CCCNC(=N)N)C(=O)N[C@@H](C)C(=O)N[C@@H](CCCNC(=N)N)C(=O)N[C@@H](CC(=O)O)C(=O)N[C@@H](Cc1ccccc1)C(=O)N[C@H](C(=O)N[C@@H](C)C(=O)N[C@@H](Cc1c[nH]c2ccccc12)C(=O)N[C@@H](CC(C)C)C(=O)N[C@@H](CCC(=O)O)C(=O)N[C@@H](C)C(=O)NCC(=O)NCC(N)=O)C(C)C)C(=O)O` [g848] (H-HSQGTFTSDK([γGlu-Palmitoyl])SRYLDSERARDFVAWLEAGG-NH2; N-terminus assumed), the EC50 on Human GLP1R (Table 4, read-out: hGLP1R EC50) was 0.00942 nM; on Human GIPr (Table 4, read-out: hGIPR EC50) it was 2.77 nM.
